Among the data in ChEMBL document CHEMBL1201862, “PubChem BioAssay data set” (2004) are AC50, EC50 and IC50 values, retold here.

Active and inactive are the calls of the source. A value given as a limit tells only on which side of the number the result lay.

Test [1] in a line: inhibitors of PGC1a acetylation in cells, dose response, cell-based, cherry-picked samples (AID 720514).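 Further: potency may reflect raised or lowered acetylation signal.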 Format: functional.
Test [2] has as its target T1, Short transient receptor potential channel 4 (Mus musculus, UniProt Q9QUQ5).
T1 sequence (Q9QUQ5 whole entry): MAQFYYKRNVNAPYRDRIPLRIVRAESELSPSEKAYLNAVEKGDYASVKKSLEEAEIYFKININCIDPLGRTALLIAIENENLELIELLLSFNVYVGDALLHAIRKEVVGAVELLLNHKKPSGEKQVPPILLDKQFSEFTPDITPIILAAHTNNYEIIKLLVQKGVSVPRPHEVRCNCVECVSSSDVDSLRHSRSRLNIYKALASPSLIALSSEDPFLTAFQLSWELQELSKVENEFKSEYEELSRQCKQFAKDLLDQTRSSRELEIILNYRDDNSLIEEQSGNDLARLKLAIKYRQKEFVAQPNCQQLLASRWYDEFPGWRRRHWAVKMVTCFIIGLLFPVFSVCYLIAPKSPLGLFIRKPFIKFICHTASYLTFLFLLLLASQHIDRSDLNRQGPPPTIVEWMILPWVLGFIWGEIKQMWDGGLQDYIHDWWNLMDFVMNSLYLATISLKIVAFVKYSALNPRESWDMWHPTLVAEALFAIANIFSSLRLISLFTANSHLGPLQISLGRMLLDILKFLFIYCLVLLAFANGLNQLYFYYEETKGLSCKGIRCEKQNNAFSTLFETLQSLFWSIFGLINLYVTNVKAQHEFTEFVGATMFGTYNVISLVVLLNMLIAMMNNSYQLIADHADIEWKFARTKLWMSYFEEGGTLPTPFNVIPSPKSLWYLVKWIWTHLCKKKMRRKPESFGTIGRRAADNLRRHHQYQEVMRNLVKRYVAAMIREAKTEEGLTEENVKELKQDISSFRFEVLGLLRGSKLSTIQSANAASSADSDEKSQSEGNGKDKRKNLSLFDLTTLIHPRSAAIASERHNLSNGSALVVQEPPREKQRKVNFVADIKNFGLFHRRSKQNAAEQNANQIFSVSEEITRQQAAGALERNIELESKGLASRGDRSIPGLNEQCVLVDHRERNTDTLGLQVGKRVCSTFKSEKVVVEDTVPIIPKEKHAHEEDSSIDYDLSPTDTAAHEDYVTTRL
The test can be described thus: mouse TRPC4 channel inhibitors, dose response, cell-based, HEK293 TRPC4/mu-opioid, Fluo-4 calcium (AID 434942).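 Further: potency of inhibitors blocking the TRPC4 calcium response.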 Type of test: functional.

Test [3] addresses Lysine-specific demethylase 4C (Homo sapiens, UniProt Q9H3R0). The test can be described thus: GASC-1 (JMJD2C) histone demethylase inhibitors, dose response, biochemical, DELFIA europium, cherry-picked samples (AID 488835). Format: functional.
Test [4] has as its target T2, Replicative DNA helicase DnaB (Mycobacterium tuberculosis, UniProt P9WMR3).
T2 sequence (P9WMR3 whole entry): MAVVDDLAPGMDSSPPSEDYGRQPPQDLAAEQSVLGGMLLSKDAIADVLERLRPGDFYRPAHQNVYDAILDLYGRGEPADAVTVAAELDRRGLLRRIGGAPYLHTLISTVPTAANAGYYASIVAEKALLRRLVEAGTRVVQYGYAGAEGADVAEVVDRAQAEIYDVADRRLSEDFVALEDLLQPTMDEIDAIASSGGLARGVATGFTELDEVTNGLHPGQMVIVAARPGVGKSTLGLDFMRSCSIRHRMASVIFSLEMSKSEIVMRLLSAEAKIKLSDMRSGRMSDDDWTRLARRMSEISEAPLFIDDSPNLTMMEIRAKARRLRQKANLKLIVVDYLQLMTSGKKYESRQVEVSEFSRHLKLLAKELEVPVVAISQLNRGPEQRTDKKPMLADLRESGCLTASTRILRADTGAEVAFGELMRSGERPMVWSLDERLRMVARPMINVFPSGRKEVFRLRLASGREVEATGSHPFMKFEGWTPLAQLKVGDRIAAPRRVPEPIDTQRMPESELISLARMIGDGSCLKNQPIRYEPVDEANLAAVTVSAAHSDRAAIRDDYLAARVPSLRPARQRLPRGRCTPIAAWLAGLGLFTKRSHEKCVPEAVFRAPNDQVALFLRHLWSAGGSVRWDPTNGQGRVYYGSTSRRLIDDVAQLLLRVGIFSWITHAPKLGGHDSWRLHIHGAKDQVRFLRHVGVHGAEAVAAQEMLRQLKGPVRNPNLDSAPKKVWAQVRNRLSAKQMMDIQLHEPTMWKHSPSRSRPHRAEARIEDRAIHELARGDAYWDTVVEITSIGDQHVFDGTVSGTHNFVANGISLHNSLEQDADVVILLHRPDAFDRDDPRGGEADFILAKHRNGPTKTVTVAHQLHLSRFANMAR
The test can be described thus: DnaB intein splicing inhibitors, dose response, biochemical, cell-free fluorescence (AID 449749). Format: functional.

A short description of test [5]: growth suppression of PTEN-null colon cells, dose response, cell-based, HCT116 PTEN knockout (AID 1047).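 Further: HCT116 colon tumor cells with PTEN knocked out; cells exposed to compound for 60 hours before readout; potency for loss of cell viability measured by luminescence.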 Format: functional.
For a further test, the system named is INS1. The test can be described thus: beta cell apoptosis inhibitors, cytokine rescue, dose response, luminescence, retest (AID 449756).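 Further: cell death triggered by IL-1 beta plus TNF-alpha plus IFN-gamma mixture; protective hits raise ATP signal compared with cytokine alone wells.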 Type of test: functional, cell-based. The settings on record: Rattus norvegicus.
Test [6] in a line: inhibitors of SNCA 5'UTR-driven reporter translation, confirmation, H4 neuroglioma cells, luminescence (AID 1988). Format: functional, cell-based.
Test [7] is described as follows: inhibitors of firefly luciferase expression or activity, dose response, H4 neuroglioma cells, luminescence (AID 1990). Type of test: functional, cell-based.
Test [8] can be described thus: A375 melanoma cell viability loss, dose response, counter-screen for MITF inhibitor project, CellTiter-Glo luminescence, dry powder, set 4 (AID 624364).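 Further: A375 melanoma cells are MITF independent so this is a counter screen.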 Type of test: functional, cell-based. The settings on record: A-375.
Test [9] is described as follows: Luminescence Cell-Based Dose Response HTS to Identify Inhibitors of 5'UTR Stem-Loop Driven Prion Protein mRNA Translation in H4 Neuroglioblastoma Cells. [Related pubchem assays: 1827 (Project Summary), 1813 (Primary HTS)]. Type of test: functional.
Test [10] is described as follows: A375 melanoma cell cytotoxicity, dose response, counter-screen for MITF inhibitor project, CellTiter-Glo luminescence, dry powder, set 2 (AID 624489).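 Further: actives are compounds lowering A375 viability meaning general cytotoxicity.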 Type of test: functional, cell-based. The settings on record: A-375.
Another test addresses T3, Protein RecA (Mycobacterium tuberculosis, UniProt P9WHJ3).
T3 sequence (P9WHJ3 whole entry): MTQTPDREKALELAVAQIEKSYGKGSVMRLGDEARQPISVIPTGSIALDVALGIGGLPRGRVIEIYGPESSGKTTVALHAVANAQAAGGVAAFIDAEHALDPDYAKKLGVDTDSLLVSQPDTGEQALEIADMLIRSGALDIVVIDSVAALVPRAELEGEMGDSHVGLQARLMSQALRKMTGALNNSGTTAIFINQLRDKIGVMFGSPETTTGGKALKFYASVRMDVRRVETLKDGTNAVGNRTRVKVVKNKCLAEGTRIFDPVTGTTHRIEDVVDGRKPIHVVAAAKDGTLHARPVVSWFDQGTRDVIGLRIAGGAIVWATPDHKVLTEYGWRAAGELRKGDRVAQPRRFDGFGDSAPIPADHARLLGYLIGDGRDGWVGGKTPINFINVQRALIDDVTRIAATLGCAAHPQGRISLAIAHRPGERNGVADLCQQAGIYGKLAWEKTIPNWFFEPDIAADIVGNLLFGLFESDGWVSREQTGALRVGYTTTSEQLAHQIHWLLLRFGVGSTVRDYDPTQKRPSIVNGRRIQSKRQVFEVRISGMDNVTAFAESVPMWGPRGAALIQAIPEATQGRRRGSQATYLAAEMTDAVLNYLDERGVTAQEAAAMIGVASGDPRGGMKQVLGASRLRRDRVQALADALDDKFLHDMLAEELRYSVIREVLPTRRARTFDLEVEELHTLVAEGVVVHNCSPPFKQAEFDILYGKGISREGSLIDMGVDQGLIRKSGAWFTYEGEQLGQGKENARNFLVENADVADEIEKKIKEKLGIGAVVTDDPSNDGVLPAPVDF
Kind of test: Fluorescence Cell-Free Homogeneous Dose Retest to Identify Inhibitors of RecA-Intein Splicing Activity. [Related pubchem assays (depositor defined):AID2097, AID2223, AID489010, AID492950]. Format: functional.

Test [11] in a line: growth suppression of beta-catenin-knockout colon cells, dose response, cell-based, HCT116, human colon tumor (AID 1045).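 Further: HCT116 colon tumor cells with beta catenin knocked out; cells exposed to compound for 60 hours.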 Type of test: functional.
The nature of test [12]: cytotoxicity in HEK-293T cells, dose response, cytotoxicity control for TCR NF-kB inhibitor project, luminescence, T-cell screen hits (AID 489026).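 Further: cells exposed to compound about 14 hours before the viability readout.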 Type of test: functional, cell-based.
Test [13] concerns the target T4, Microphthalmia-associated transcription factor (Homo sapiens, UniProt O75030).
T4 sequence (O75030 whole entry): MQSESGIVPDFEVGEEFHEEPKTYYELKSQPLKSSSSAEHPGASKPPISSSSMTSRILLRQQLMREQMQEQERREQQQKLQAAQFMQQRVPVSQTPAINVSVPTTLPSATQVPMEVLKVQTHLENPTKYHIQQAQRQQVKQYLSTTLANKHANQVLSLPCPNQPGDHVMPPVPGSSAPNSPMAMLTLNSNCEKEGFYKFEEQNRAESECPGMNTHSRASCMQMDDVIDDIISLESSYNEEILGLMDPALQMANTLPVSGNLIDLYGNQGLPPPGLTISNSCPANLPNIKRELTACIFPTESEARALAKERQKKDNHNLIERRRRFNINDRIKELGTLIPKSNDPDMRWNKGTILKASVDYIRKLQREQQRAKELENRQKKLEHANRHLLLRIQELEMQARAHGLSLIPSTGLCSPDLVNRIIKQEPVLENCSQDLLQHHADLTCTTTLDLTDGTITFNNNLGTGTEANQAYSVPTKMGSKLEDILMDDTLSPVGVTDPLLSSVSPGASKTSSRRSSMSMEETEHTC
Kind of test: TRPM1 promoter luciferase signal decrease, dose response, MITF inhibitor project, cell-based, SK-MEL-5, cherry-picked, set 3 (AID 493073).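 Further: SK-MEL-5 melanoma cells with luciferase driven by the MITF target TRPM1 promoter.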 Type of test: functional.

Test [14] in a line: inhibitors of intracellular T. cruzi replication, confirmation, NIH3T3 host cells, beta-gal luminescence (AID 2044).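 Further: intracellular parasites grown in NIH/3T3 mouse fibroblasts as host cells; luminescent beta-galactosidase reporter signal from transgenic T. cruzi replicating inside host cells; inhibitors lower the luminescence signal.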 Type of test: functional, cell-based.
Test [15] is described as follows: cytotoxicity toward NIH3T3 fibroblasts, dose response, counter-screen, cell-based, ATP luminescence, mouse fibroblasts (AID 2010).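 Further: cells exposed to compound for about 90 hours before reading.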 Type of test: functional.
Test [16] can be described thus: Artemis endonuclease inhibitor potency, dose response, biochemical, fluorescence intensity (AID 720701).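 Further: Artemis endonuclease enzyme.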 Format: functional.
Test [17] is described as follows: HEK293 Cytotoxicity Assay Measured in Cell-Based System Using Plate Reader - 7071-01_Inhibitor_Dose_CherryPick_Activity_Set2. Type of test: functional.
A further test relates to HEK293. Kind of test: HEK293T cell cytotoxicity, dose response, cytotoxicity control, ATP luminescence, cherry-pick samples (AID 687005).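 Further: cells exposed to compound for 48 hours.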 Type of test: functional, cell-based. Particulars: Homo sapiens.
A further test has as its system HeLa. The test can be described thus: HeLa cell cytotoxicity, dose response, cytotoxicity control, ATP luminescence, cherry-pick samples (AID 687004). Type of test: functional, cell-based. The settings on record: Homo sapiens.

Sequence of Lysine-specific demethylase 4C (Q9H3R0 whole entry): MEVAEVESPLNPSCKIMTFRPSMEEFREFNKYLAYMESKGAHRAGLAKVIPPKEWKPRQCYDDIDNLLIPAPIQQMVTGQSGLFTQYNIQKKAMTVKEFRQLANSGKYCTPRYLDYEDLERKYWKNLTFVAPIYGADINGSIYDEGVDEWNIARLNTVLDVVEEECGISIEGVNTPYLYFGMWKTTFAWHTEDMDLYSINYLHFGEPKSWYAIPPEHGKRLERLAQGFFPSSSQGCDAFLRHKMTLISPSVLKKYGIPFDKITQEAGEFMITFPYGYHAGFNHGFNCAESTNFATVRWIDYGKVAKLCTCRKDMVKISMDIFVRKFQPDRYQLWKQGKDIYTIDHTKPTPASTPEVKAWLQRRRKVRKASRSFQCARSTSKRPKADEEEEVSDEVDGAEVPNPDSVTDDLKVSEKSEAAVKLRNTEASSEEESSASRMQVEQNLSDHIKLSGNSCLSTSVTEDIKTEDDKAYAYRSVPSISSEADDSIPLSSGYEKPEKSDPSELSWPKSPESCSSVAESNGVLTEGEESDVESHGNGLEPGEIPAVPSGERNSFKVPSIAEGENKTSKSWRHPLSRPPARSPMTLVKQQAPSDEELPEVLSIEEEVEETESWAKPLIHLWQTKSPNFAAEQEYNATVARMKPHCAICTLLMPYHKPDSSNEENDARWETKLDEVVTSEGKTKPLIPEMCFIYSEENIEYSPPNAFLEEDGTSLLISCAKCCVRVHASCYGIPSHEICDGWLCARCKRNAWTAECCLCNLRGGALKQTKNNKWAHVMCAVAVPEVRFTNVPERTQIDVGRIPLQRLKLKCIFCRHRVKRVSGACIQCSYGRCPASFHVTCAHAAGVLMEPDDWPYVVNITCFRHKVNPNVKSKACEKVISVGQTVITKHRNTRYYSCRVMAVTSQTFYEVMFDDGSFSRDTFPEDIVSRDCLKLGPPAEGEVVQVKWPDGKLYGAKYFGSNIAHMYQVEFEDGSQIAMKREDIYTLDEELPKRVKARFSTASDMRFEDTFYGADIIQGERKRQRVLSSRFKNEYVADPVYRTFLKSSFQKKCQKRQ

As to `CCOC(=O)C1(Cc2cccc(F)c2)CCN(Cc2c(C)nn(CC)c2C)CC1`, the half-maximal activity concentration (AC50) in test [1] is 28.8 µM (active). The EC50 in test [2] is 1.06 µM (active).

As to `CC(=O)N(C)C1=C(N2CCOCC2)C(=O)c2ccccc2C1=O`, the half-maximal activity concentration (AC50) in [3] was 31.2 µM (active); in test [4] it was 51.3 µM (active); in the test with INS1, 1.67 µM (active); in test [8], 32.1 µM (active); in [10] it was 13.9 µM (active); in test [13] it was 3.5 µM (active). The EC50 is 1.91 µM (active) in [5]; 7.74 µM (active) in [6]; 10.8 µM (active) in test [7]; 11.7 µM (active) in test [9]; 38.4 µM (active) on Protein RecA; 1.81 µM (active) in [11]. Moreover, in [12], the IC50 was 4.03 µM (active).

`CCOC(=O)c1c(NC(=O)CSc2n[nH]c3c4ccccc4nc-3n2)sc2c1CCN(C)C2`: the EC50 in test [14] is 0.161 µM (active); in test [15] it was > 60 µM (not active). The IC50 in test [16] was 10 µM (active).

With `Cc1cccc(-c2ccc([C@@H]3[C@H]4CN(C(=O)c5ccc6c(c5)OCO6)CCCCN4[C@H]3CO)cc2)c1`, the AC50 in [17] was 8.23 µM (active); in the test on HEK293 it was 8.23 µM (active); with HeLa it was 20.2 µM (active).
